Assay [1] has as its system B16M-F10/Tet-Bcl-2. As to the kind of experiment: Growth of hepatic metastases of B16M-F10/Tet-Bcl-2 in mice. To be noted: 20 mg/kg i.v. daily x10 days; for Volume of metastases: none 25 ± 6; for Density of metastases: none 29 ± 5. It is filed as in vivo. The method, then:
(§1) Hepatic metastases were induced by i.v. inoculations (portal vein), in anesthetized mice (Nembutal, 50 mg/kg i.p.), of 4×10^5 viable B16M-F10 cells suspended in 0.2 ml of DMEM. The mice were sacrificed by cervical dislocation 10 days after inoculation. The livers were fixed by immersion for 24 hours at 22° C. in 10% formaldehyde in PBS (pH 7.4), and were subsequently embedded in paraffin. The density of metastases (average number of foci/100 mm^3 of liver detected in fifteen sections of 10×10 mm^2 per liver) and the volume of metastases (average percentage of liver volume occupied by metastases) were determined as described previously (22).
(§2) This methodology makes it possible for the effect of PTER and QUER to be studied in vivo. For this purpose, mice were inoculated with B16M-F10 control cells or B16M-F10/Tet-Bcl-2 which overexpressed Bcl-2. Both subgroups of cells were cultivated beforehand in the absence or in the presence of t-PTER and QUER. B16M-F10 cells were cultivated for 72 hours. t-RESV (12 μM), t-PTER (40 μM), and QUER (20 μM) were added at 6, 30 and 54 hours of culture time, and were present in each case for just 60 minutes. Then they were removed from the culture flasks by washing (3 times with PBS) and the medium was renewed. The levels of Bcl-2 in the B16M-F10 control cells and cells treated with Tet-Bcl-2 were 24±5 and 105±14 units/mg of protein, respectively (n=5 in each case, P<0.01). The number of adhering cells shown in the table was calculated at 60 minutes postinjection (no significant differences were found when the measurements were effected at 30, 120, 180, 240 or 360 minutes postinjection, data not shown). The number of intact cells was calculated at 6 hours postinjection. The experimental microscopy data in vivo are mean values±SD corresponding to 4-5 different experiments. The growth of metastases in the liver was evaluated as stated in the corresponding section of the description, and in this case the mice were treated daily (×10 days) with t-PTER and/or QUER (20 mg/kg of body weight) administered i.v. (the data are mean values±SD corresponding to 25 mice per group). A similar method and equal number of mice per group were used for evaluating the survival of the carrier animals. The test of significance relates, in all the groups, to comparison between cases with PTER and/or QUER and cases without additions (*P<0.05 and **P<0.01), and to comparison between the B16M-F10/Tet-Bcl-2 cells with the B16M-F10 control cells (^+P<0.05, ^++P<0.01). […] This is the first time that the combined administration in vivo of natural polyphenols has induced inhibition of metastatic growth of a highly malignant tumor and an increase in the survival of the carrier.

A further assay concerns Bcl-2. Briefly: Intracellular levels of Bcl-2 in B16M-F10 cells (enzyme immunoassay). Type of assay: cell-based, mouse. The following applies: t-PTER 40 μM, QUER 20 μM, 60 minutes at 6, 30 and 54 hours, none 35 ± 5. From the text:
The Tet-off gene expression system (Clontech, Palo Alto, Calif., USA) was used for inserting the mouse bcl-2 gene and transfecting the B16M-F10 cells, as described previously (26) and following the manufacturer's instructions. The protein Bcl-2 was quantified in the soluble cytosolic fraction by enzyme immunoassay (27) using a test based on a monoclonal antibody from Sigma (San Luis, Mo., USA) (a Bcl-2 unit was defined as the amount of Bcl-2 protein in 1000 non-transfected B16M-F10 cells).
(§3) This methodology makes it possible for the effect of PTER and QUER to be studied in vivo. For this purpose, mice were inoculated with B16M-F10 control cells or B16M-F10/Tet-Bcl-2 which overexpressed Bcl-2. […] The number of adhering cells shown in the table was calculated at 60 minutes postinjection (no significant differences were found when the measurements were effected at 30, 120, 180, 240 or 360 minutes postinjection, data not shown). The number of intact cells was calculated at 6 hours postinjection. […] The growth of metastases in the liver was evaluated as stated in the corresponding section of the description, and in this case the mice were treated daily (×10 days) with t-PTER and/or QUER (20 mg/kg of body weight) administered i.v. (the data are mean values±SD corresponding to 25 mice per group). […]

In assay [2] the test system is B16M-F10. As to the kind of experiment: Growth of hepatic metastases of B16M-F10 in mice. It is filed as in vivo. To be noted: 20 mg/kg i.v. daily x10 days; for Volume of metastases: none 22 ± 4; for Density of metastases: none 27 ± 5. The method, then: as §1, §2
The next assay deals with B16M-F10/Tet-Bcl-2 cells. Briefly: In vivo microscopy: B16M-F10/Tet-Bcl-2 cells adhering to the HSE and intact cells. The following applies: for Intact cells: B16M-F10/Tet-Bcl-2, 6 hours postinjection, none 85 ± 13; for Number of cells adhering to the HSE: B16M-F10/Tet-Bcl-2 precultured with polyphenols, 60 minutes postinjection, none 42 ± 6. Set-up: species or system mice. The protocol: as §1, §2

Assay [3] has as its system B16M-F10. Briefly: Survival of mice carrying B16M-F10 metastases. It is filed as in vivo. The following applies: for Survival of the carrier: B16M-F10, 20 mg/kg i.v. daily, none 13 ± 2. The method, then:
as §1
This methodology makes it possible for the effect of PTER and QUER to be studied in vivo. For this purpose, mice were inoculated with B16M-F10 control cells or B16M-F10/Tet-Bcl-2 which overexpressed Bcl-2. Both subgroups of cells were cultivated beforehand in the absence or in the presence of t-PTER and QUER. B16M-F10 cells were cultivated for 72 hours. t-RESV (12 μM), t-PTER (40 μM), and QUER (20 μM) were added at 6, 30 and 54 hours of culture time, and were present in each case for just 60 minutes. Then they were removed from the culture flasks by washing (3 times with PBS) and the medium was renewed. The levels of Bcl-2 in the B16M-F10 control cells and cells treated with Tet-Bcl-2 were 24±5 and 105±14 units/mg of protein, respectively (n=5 in each case, P<0.01). The number of adhering cells shown in the table was calculated at 60 minutes postinjection (no significant differences were found when the measurements were effected at 30, 120, 180, 240 or 360 minutes postinjection, data not shown). The number of intact cells was calculated at 6 hours postinjection. […] The growth of metastases in the liver was evaluated as stated in the corresponding section of the description, and in this case the mice were treated daily (×10 days) with t-PTER and/or QUER (20 mg/kg of body weight) administered i.v. (the data are mean values±SD corresponding to 25 mice per group). […]

The subject of a further assay is B16M-F10 cells. Briefly: In vivo microscopy: B16M-F10 cells adhering to the HSE and intact cells. On the set-up: species or system mice. To be noted: for Intact cells: B16M-F10, 6 hours postinjection, none 83 ± 14; for Number of cells adhering to the HSE: B16M-F10 precultured with polyphenols, 60 minutes postinjection, none 45 ± 7. The method, then:
as §1, §2

Assay [4] relates to B16M-F10/Tet-Bcl-2. As to the kind of experiment: Survival of mice carrying B16M-F10/Tet-Bcl-2 metastases. Type of assay: in vivo. The following applies: 20 mg/kg i.v. daily, none 12 ± 1. The method, then: as §1
as §3, with “vivo.” for “vivo. For this purpose, mice were inoculated with B16M-F10 control cells or B16M-F10/Tet-Bcl-2 which overexpressed Bcl-2.”

We go through 2 compounds from patent US8227510B2, “Combine use of pterostilbene and quercetin for the production of cancer treatment medicaments” (Universitat de Valencia, priority 2004, dated 2012).

Marks after values point to notes of the source that are not given here.

With `COc1cc(/C=C/c2ccc(O)cc2)cc(OC)c1` [PTER, pterostilbene], the Volume of metastases with B16M-F10/Tet-Bcl-2 [1] is on record as 15 ± 3** percentage of liver volume; in the assay on B16M-F10 [2], 14 ± 4** percentage of liver volume. Moreover, the Density of metastases in the assay on B16M-F10/Tet-Bcl-2 [1] was 15 ± 3** number of foci/100 mm^3; in the assay with B16M-F10 [2] it was 18 ± 4** number of foci/100 mm^3. In the assay on Bcl-2, the “Intracellular levels of Bcl-2 before inoculation” value was 21 ± 4** units/mg protein. The Intact cells in the assay with B16M-F10/Tet-Bcl-2 cells is listed as 91 ± 20 percentage of cells adhering t; with B16M-F10 cells, 85 ± 17 percentage of cells adhering t. Further, the “Number of cells adhering to the HSE” value is reported as 21 ± 4** average number per lobe in the assay with B16M-F10/Tet-Bcl-2 cells and 20 ± 5** average number per lobe in the assay with B16M-F10 cells. The “Survival of the carrier” value was found to be 15 ± 2 days with B16M-F10 [3] and 12 ± 2 days with B16M-F10/Tet-Bcl-2 [4].

With `O=c1c(O)c(-c2ccc(O)c(O)c2)oc2cc(O)cc(O)c12` [QUER, quercetin], the Volume of metastases is listed as 24 ± 5^++ percentage of liver volume in the assay on B16M-F10/Tet-Bcl-2 [1] and 12 ± 3** percentage of liver volume with B16M-F10 [2]. Besides, the Density of metastases with B16M-F10/Tet-Bcl-2 [1] is reported as 26 ± 516^++ number of foci/100 mm^3; in the assay on B16M-F10 [2] it was 15 ± 4** number of foci/100 mm^3. Besides, the “Intracellular levels of Bcl-2 before inoculation” value with Bcl-2 is 9 ± 3** units/mg protein. Moreover, the Intact cells in the assay on B16M-F10/Tet-Bcl-2 cells was 87 ± 13^++ percentage of cells adhering t; with B16M-F10 cells, 52 ± 8** percentage of cells adhering t. For the same compound, the “Number of cells adhering to the HSE” value was determined as 40 ± 7 average number per lobe with B16M-F10/Tet-Bcl-2 cells and 46 ± 9 average number per lobe with B16M-F10 cells. The figures for the “Survival of the carrier” value with B16M-F10 [3] and with B16M-F10/Tet-Bcl-2 [4] were 15 ± 1 days and 13 ± 2 days, respectively. The “effect on survival of the carrier host” value in the assay with B16M-F10 [3] (B16M-F10 control cells, daily i.v. administration) is reported as “neither of these compounds significantly increased the survival”.
